Measured values as given in patent publication US7781421B2, “Neuroactive 13, 24-cyclo-18, 21-dinorcholanes and structurally related pentacyclic steriods” (Washington University, priority 2003, dated 2010).
Several values for one entry are separate records, joined by “and”; a condition that tells them apart may be missing. Equal entries are not always repeated.

Assays:
[1] = tested on: Xenopus laevis tadpoles; experiment: Tadpole loss of righting (LRR) and swimming (LSR) reflexes; type: in vivo; details: 3 h equilibration at room temperature; for EC50: Xenopus laevis, 3 h, read-out: LSR EC50 (loss of swimming response)
Method: Tadpole LRR was measured as described previously. (See, Wittmer, L. L., et al., Enantioselectivity of steroid-induced γ-aminobutyric acidA receptor modulation and anesthesia, Mol. Phar., 1996, 50:1581-1586). Briefly, groups of 10 early prelimb-bud stage Xenopus laevis tadpoles (Nasco, Fort Atkinson, Wis.) were placed in 100 mL of oxygenated Ringer's stock solution containing various concentrations of compound. Compounds were added from a 10 mM DMSO stock (final concentration of DMSO in test solutions ≦0.1%). After equilibrating at room temperature for 3 h, tadpoles were evaluated using the LRR and LSR behavioral endpoints. LRR was defined as failure of the tadpole to right itself within 5 sec after being flipped by a smooth glass rod. LSR was defined as failure of the tadpole to swim when touched by a smooth glass rod. In general, the tadpoles regained their righting and swimming reflexes when placed in fresh oxygenated Ringer's solution. Control beakers containing up to 0.6% DMSO produced no LRR or LSR in tadpoles.
Tadpole LRR and LSR concentration-response curves were fit using Sigma Plot version 3.0 to the Hill equation f=Rmax/{1+([conc]/EC50)^n}
where Rmax is the maximum effect, [conc] is the steroid concentration, EC50 is the half-maximal effective concentration, and n is the Hill coefficient.

[2] = target: GABAA receptor ([35S]-TBPS binding site, rat brain cortical membranes); experiment: Displacement of [35S]-TBPS binding, rat brain cortical membranes; details: 5 μM GABA, 2 nM [35S]-TBPS; ± standard error of the means
Method: Rat brain cortical membranes were prepared with minor modifications of the method previously reported. (Hawkinson, J. E., et al., Correlation of Neuroactive Steroid Modulation of [^35S]t-Butylbicyclophosophorothionate and [^3H]Flunitrazepam Binding and γ-Aminobutyric AcidA Receptor Function, Mol. Pharmacol., 1994, 46, 977-985). Briefly, frozen rat cerebral cortices (Pel-freez, Rogers, Ak.) were thawed and homogenized in 10 volumes of ice-cold 0.32 M sucrose using a glass/Teflon pestle. The homogenate was centrifuged at 1500×g for 10 min at 4° C. The resultant supernatant was centrifuged at 10,000×g for 30 min at 4° C. The pellet (P2) from this centrifugation was resuspended in 200 mM NaCl, 50 mM potassium phosphate buffer, pH 7.4, and centrifuged at 10,000×g for 20 min at 4° C. This washing procedure was done a total of three times, and then pellets were resuspended in buffer (˜4 mL/brain) using a glass/Teflon pestle. The membrane suspension was aliquoted, frozen in liquid nitrogen, and stored at −80° C. prior to use.
[^35S]-TBPS Binding assays were done according to the procedure described previously (Hawkinson, J. E., et al., Correlation of Neuroactive Steroid Modulation of [^35S]t-Butylbicyclophosophorothionate and [^3H]Flunitrazepam Binding and γ-Aminobutyric AcidA Receptor Function, Mol. Pharmacol., 1994, 46, 977-985) with modifications. Briefly, aliquots of membrane solution (0.5 mg/mL final protein concentration in assay) were incubated with 5 μM GABA, 2 nM [^35S]-TBPS (45-120 Ci/mmol), and 5 μL aliquots of steroid in DMSO solution (final assay concentrations ranged from 1 nM to 10 μM), and brought to a final volume of 1 mL with 200 mM NaCl, 50 mM potassium phosphate buffer, pH 7.4. […] Assay tubes were incubated for 2 hr at room temperature. A Brandel (Gaithersburg, Md.) cell harvester was used for filtration of the assay tubes through Whatman/GF/C glass filter paper. Filter paper was rinsed with 4 mL of ice-cold buffer three times. Radioactivity bound to the filters was read by liquid scintillation counter and data was fit using Sigma Plot version 3.0 to the Hill equation i. f=Rmax/{1+([conc]/IC50)^n}
Where Rmax is the maximal effect, [conc] is steroid concentration, IC50 is the half-maximal inhibitor concentration and n is the Hill coefficient. Each data point was determined in triplicate and 2-3 full concentration-response curves were generated for each steroid.

[3] = target: T1, rat α1β2γ2 GABAA Receptor (Rattus norvegicus, UniProt P18508+P62813+P63138, INS375LLRMFSFK); experiment: Xenopus oocyte two-electrode voltage-clamp electrophysiology; type: cell-based; details: for Oocyte electrophysiology, ratio of currents in presence/absence of compound, 0.1 μM: 0.1 μM compound co-applied with 2 μM GABA; for Oocyte electrophysiology, ratio of currents in presence/absence of compound, 0.1 μM / Oocyte electrophysiology, ratio of currents in presence/absence of compound, 1 μM / Oocyte electrophysiology, ratio of currents in presence/absence of compound, 10 μM: −70 mV; for Oocyte electrophysiology, ratio of currents in presence/absence of compound, 1 μM: 1 μM compound co-applied with 2 μM GABA; for Oocyte electrophysiology, ratio of currents in presence/absence of compound, 10 μM: 10 μM compound co-applied with 2 μM GABA; for Gating (10 μM), ratio of compound only current/2 μM GABA current: direct current gated by 10 μM compound in the absence of GABA
T1 construct: from linearized pBluescript vectors containing receptor coding regions; expressed in transfected cells; host or cells: Xenopus laevis oocytes injected with in vitro transcribed capped mRNA
T1 sequence (P62813 28-455, stated change not applied): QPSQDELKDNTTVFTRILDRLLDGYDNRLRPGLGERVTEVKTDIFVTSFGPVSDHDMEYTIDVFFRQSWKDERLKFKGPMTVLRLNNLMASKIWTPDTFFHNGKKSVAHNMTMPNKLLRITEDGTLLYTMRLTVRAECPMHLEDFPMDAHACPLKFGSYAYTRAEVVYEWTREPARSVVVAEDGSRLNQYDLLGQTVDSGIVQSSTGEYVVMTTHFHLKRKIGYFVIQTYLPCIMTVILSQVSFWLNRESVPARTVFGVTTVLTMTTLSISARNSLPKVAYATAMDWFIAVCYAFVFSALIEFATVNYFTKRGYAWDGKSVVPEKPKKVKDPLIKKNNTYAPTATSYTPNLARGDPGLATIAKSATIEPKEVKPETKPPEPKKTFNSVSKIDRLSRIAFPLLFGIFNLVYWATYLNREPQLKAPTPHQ
T1 sequence (P63138 26-474, stated change not applied): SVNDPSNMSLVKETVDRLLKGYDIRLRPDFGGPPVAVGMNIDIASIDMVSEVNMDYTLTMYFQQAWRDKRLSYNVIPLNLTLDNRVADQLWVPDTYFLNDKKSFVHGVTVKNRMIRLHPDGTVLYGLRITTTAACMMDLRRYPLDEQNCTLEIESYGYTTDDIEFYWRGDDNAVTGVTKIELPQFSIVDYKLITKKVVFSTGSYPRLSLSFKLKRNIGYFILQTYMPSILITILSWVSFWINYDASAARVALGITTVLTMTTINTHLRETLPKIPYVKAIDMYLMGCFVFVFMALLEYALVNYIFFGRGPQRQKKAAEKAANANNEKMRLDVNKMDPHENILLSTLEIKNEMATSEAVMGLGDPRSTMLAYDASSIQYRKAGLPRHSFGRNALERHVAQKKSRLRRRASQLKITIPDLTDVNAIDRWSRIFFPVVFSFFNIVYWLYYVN
T1 sequence (P18508 with tags, fused parts or gaps INS375LLRMFSFK): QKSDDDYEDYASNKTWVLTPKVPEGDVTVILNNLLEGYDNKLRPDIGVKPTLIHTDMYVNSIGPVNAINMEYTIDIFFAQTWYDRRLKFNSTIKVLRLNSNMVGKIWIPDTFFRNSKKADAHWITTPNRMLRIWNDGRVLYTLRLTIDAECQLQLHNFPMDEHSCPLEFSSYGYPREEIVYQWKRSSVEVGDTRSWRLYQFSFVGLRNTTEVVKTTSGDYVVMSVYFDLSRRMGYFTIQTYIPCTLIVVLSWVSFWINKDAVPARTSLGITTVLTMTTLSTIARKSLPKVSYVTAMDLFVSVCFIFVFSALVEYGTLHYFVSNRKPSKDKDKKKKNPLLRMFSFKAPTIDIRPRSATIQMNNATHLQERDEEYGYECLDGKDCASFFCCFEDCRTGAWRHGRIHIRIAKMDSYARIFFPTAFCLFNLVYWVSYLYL
Method: Stage V-VI oocytes were harvested from sexually mature female Xenopus laevis (Xenopus One, Northland, Mich.) under 0.1% tricaine (3-aminobenzoic acid ethyl ester) anesthesia. Oocytes were defolliculated by shaking for 20 min at 37° C. in collagenase (2 mg/ml) dissolved in calcium-free solution containing (in mM): 96 NaCl, 2 KCl, 1 MgCl2, and 5 HEPES at pH 7.4. Capped mRNA, encoding rat GABAA receptor α1, β2 and γ2L subunits was transcribed in vitro using the mMESSAGE mMachine Kit (Ambion, Austin, Tex.) from linearized pBluescript vectors containing receptor coding regions. Subunit transcripts were injected in equal parts (20-40 ng total RNA) 8-24 hours following defolliculation. Oocytes were incubated up to 5 days at 18° C. in ND96 medium containing (in mM): 96 NaCl, 1 KCl, 1 MgCl2, 2 CaCl2 and 5 HEPES at pH 7.4, supplemented with pyruvate (5 mM), penicillin (100 U/ml), streptomycin (100 μg/ml) and gentamycin (50 μg/ml). The cDNAs for the rat GABAA-receptor subunits were originally provided by A. Tobin, University of California, Los Angels (α1), P. Malherbe, Hoffman-La Roche, Switzerland (β2), C. Fraser, National Institute on Alcohol Abuse and Alcoholism (γ2L).
Two-electrode voltage-clamp experiments were performed with a Warner OC725 amplifier 2-5 days following RNA injection. The extracellular recording solution was ND96 medium with no supplements. Intracellular recording pipettes were filled with 3 M KCl and had open tip resistances of ˜1 MΩ. Drugs were applied from a common tip via a gravity-driven multibarrel drug-delivery system. Steroids were simultaneously co-applied with GABA. Cells were clamped at −70 mV for all experiments, and peak current during 20 s drug applications was measured. Data acquisition and analysis were performed with pCLAMP software (Axon Instruments, California). Statistical differences were determined using a two-tailed Student's t-test.
The GABA concentration used for the control response was 2 μM. Each compound was evaluated on at least four different oocytes at the concentrations indicated, and the results reported are the ratio of the currents measured in the presence/absence of added compound. (G) represents direct current gated by 10 μM compound in the absence of GABA, and this current is reported as the ratio of compound only current/2 μM GABA current. Error limits are calculated as standard error of the means.

| Structure (SMILES) | melting point | LRR ED50 (loss of righting response) [1] | LSR EC50 (loss of swimming response) [1] | IC50 [2] [nM] | Oocyte electrophysiology, ratio of currents in presence/absence of compound, 0.1 μM [3] | Oocyte electrophysiology, ratio of currents in presence/absence of compound, 1 μM [3] | Oocyte electrophysiology, ratio of currents in presence/absence of compound, 10 μM [3] | Gating (10 μM), ratio of compound only current/2 μM GABA current [3] | EC50 [1] [nM] |
| --- | --- | --- | --- | --- | --- | --- | --- | --- | --- |
| C=C1CCC[C@]23CCC4C(CC[C@H]5C[C@H](O)CC[C@]45C)C2CC[C@H]13 (stereo partly drawn) [Compound 51, (3α,5α)-20-Methylene-13,24-cyclo-18,21-dinorcholan-3-ol] | 211 to 213 °C | >10000 nM | None @ 10 | 181 ± 9 | 0.90 ± 0.15 | 0.93 ± 0.08 | 0.95 ± 0.05 | −0.06 ± 0.06 | – |
| C[C@]12CC[C@@H](O)C[C@H]1CCC1C3CCC4CCC(=O)C[C@@]43CCC12 (stereo partly drawn) [Compound 4b, (3α,5β)-3-Hydroxy-13,24-cyclo-18,21-dinorcholan-23-one] | 197 to 198 °C | 1440 ± 20 nM | – | 899 ± 150 | 0.97 ± 0.03 | 1.03 ± 0.08 | 3.17 ± 0.42 | 0.01 ± 0.01 | 3550 ± 1150 |
| C[C@]12CC[C@@H](O)C[C@@H]1CCC1C3CC[C@@H]4CC[C@@H](C#N)C[C@]34CCC12 (stereo partly drawn) [Compound 49, (3α,5α,20R)-3-Hydroxy-13,24-cyclo-18,21-dinorcholane-23-carbonitrile] | 182 to 183 °C | 350 ± 90 nM | – | 574 ± 26 | – | – | 1.3 ± 0.1 | – | > 10000 |
| COC1CCCC23CCC4C(CCC5CC(O)CCC54C)C2CCC13 [Compound 69, (3α,5α,20S)-20-Methoxy-13,24-cyclo-18,21-dinorcholan-3-ol] | 182 to 183 °C | None @ 10 | None @ 10 | 353 ± 38 | 0.90 ± 0.04 | 1.26 ± 0.09 | 1.72 ± 0.28 | 0.00 ± 0.00 | – |
| C[C@]12CC[C@@H](O)C[C@@H]1CCC1C3CC[C@@H]4[C@]5(CCC[C@]34CCC12)CO5 (stereo partly drawn) [Compound 74, (3α,5α,20R)-20,21-Epoxy-13,24-cyclo-18-norcholan-3-ol] | 206 to 211 °C (dec.) | >10000 nM | None @ 10 | 64 ± 9 | 1.61 ± 0.18 | 5.46 ± 1.21 | 4.53 ± 0.75 | −0.01 ± 0.01 | – |
| CC12CCC(O)CC1CCC1C2CCC23CCCC(=CC#N)C2CCC13 (stereo not drawn) [Compound 64, (3α,5α,20Z)-3-Hydroxy-13,24-cyclo-18-norcholan-20-ene-21-carbonitrile] | 201.5 to 203 °C | 680 ± 150 nM | – | 1080 | 1.19 ± 0.04 | 1.27 ± 0.03 | 1.74 ± 0.11 | 0.03 ± 0.04 | 10200 |
| C[C@]12CC[C@@H](O)C[C@@H]1CCC1C3CC[C@@H]4[C@H](C#N)CCC[C@]34CCC12 (stereo partly drawn) [Compound 39, (3α,5α,20R)-3-Hydroxy-13,24-cyclo-18,21-dinorcholane-20-carbonitrile] | 213 to 214 °C | 490 ± 90 nM | None @ 10 | 1670 ± 138 | 1.04 ± 0.03 | 1.12 ± 0.08 | 1.70 ± 0.10 | 0.04 ± 0.04 | – |
| C[C@]12CC[C@@H](O)C[C@@H]1CCC1C3CC[C@@H]4/C(=C/C#N)CCC[C@]34CCC12 (stereo partly drawn) [Compound 63, (3α,5α,20E)-3-Hydroxy-13,24-cyclo-18-norcholan-20-ene-21-carbonitrile] | 210 to 212 °C and 214 to 216 °C | 40 ± 0 nM | – | 11 ± 1.8 | 6.29 ± 1.71 | 12.34 ± 3.28 | 17.82 ± 3.75 | 0.01 ± 0.02 | 80 ± 20 |
| CC12CCC(O)CC1CCC1C2CCC23C=C(Br)C(=O)C2CCC13 (stereo not drawn) [Compound 95, (3α,5α)-21-bromo-3-hydroxy-18,21-cyclopregn-18(21)-en-20-one] | 220 to 222.5 °C | 290 ± 40 nM | – | 94 ± 17 | 1.25 ± 0.08 | 1.99 ± 0.20 | 8.75 ± 1.92 | 0.02 ± 0.02 | 550 ± 90 |
